Results taken from the NIST ThermoML archive (doi:10.1021/acs.jced.7b00106).
± gives the expanded uncertainty stated by the source.

Details: Hot wire method

**Q.** For `FC(F)(F)/C=C/Cl` [(E)-1-chloro-3,3,3-trifluoroprop-1-ene], which thermal conductivity (301.77 K, 4081 kPa, Liquid) is on record?
**A.** 0.08378 ± 0.0044 W/m/K

**Q.** And the thermal conductivity (301.78 K, 307 kPa, Liquid)?
**A.** 0.08197 ± 0.0027 W/m/K

**Q.** What about the thermal conductivity (301.79 K, 62991 kPa, Liquid) of the same molecule?
**A.** 0.1059 ± 0.0066 W/m/K

**Q.** What about the thermal conductivity (301.81 K, 65522 kPa, Liquid) of the same molecule?
**A.** 0.1076 ± 0.013 W/m/K

**Q.** And the thermal conductivity (301.83 K, 48074 kPa, Liquid)?
**A.** 0.1002 ± 0.0061 W/m/K

**Q.** What about the thermal conductivity (301.88 K, 36387 kPa, Liquid) of the same molecule?
**A.** 0.09695 ± 0.003 W/m/K

**Q.** And the thermal conductivity (301.89 K, 143 kPa, Gas)?
**A.** 0.01116 ± 0.00041 W/m/K

**Q.** What about the thermal conductivity (301.89 K, 62976 kPa, Liquid) of the same molecule?
**A.** 0.1058 ± 0.0068 W/m/K

**Q.** And the thermal conductivity (301.9 K, 141 kPa, Gas)?
**A.** 0.01138 ± 0.00042 W/m/K

**Q.** And the thermal conductivity (301.9 K, 65529 kPa, Liquid)?
**A.** 0.1065 ± 0.0073 W/m/K

**Q.** What about the thermal conductivity (301.91 K, 122 kPa, Gas) of the same molecule?
**A.** 0.01121 ± 0.0004 W/m/K

**Q.** And the thermal conductivity (301.91 K, 42002 kPa, Liquid)?
**A.** 0.09897 ± 0.003 W/m/K

**Q.** And the thermal conductivity (301.92 K, 130 kPa, Gas)?
**A.** 0.01129 ± 0.0004 W/m/K

**Q.** What about the thermal conductivity (301.92 K, 36223 kPa, Liquid) of the same molecule?
**A.** 0.09724 ± 0.003 W/m/K

**Q.** What about the thermal conductivity (301.92 K, 56462 kPa, Liquid) of the same molecule?
**A.** 0.1042 ± 0.0042 W/m/K

**Q.** What about the thermal conductivity (301.93 K, 47191 kPa, Liquid) of the same molecule?
**A.** 0.1005 ± 0.0034 W/m/K

**Q.** And the thermal conductivity (301.94 K, 25799 kPa, Liquid)?
**A.** 0.09347 ± 0.0045 W/m/K

**Q.** What about the thermal conductivity (301.94 K, 48073 kPa, Liquid) of the same molecule?
**A.** 0.1008 ± 0.0034 W/m/K

**Q.** And the thermal conductivity (301.94 K, 48421 kPa, Liquid)?
**A.** 0.1013 ± 0.0036 W/m/K

**Q.** What about the thermal conductivity (301.98 K, 30546 kPa, Liquid) of the same molecule?
**A.** 0.09459 ± 0.0031 W/m/K

**Q.** And the thermal conductivity (301.99 K, 36387 kPa, Liquid)?
**A.** 0.09693 ± 0.0042 W/m/K

**Q.** What about the thermal conductivity (302 K, 16444 kPa, Liquid) of the same molecule?
**A.** 0.08896 ± 0.0036 W/m/K

**Q.** And the thermal conductivity (302.01 K, 8085 kPa, Liquid)?
**A.** 0.08503 ± 0.0032 W/m/K

**Q.** And the thermal conductivity (302.01 K, 20519 kPa, Liquid)?
**A.** 0.09088 ± 0.0029 W/m/K

**Q.** And the thermal conductivity (302.01 K, 25500 kPa, Liquid)?
**A.** 0.09318 ± 0.0035 W/m/K

**Q.** What about the thermal conductivity (302.02 K, 41998 kPa, Liquid) of the same molecule?
**A.** 0.09906 ± 0.0033 W/m/K

**Q.** And the thermal conductivity (302.03 K, 47196 kPa, Liquid)?
**A.** 0.1005 ± 0.0031 W/m/K

**Q.** What about the thermal conductivity (302.04 K, 36232 kPa, Liquid) of the same molecule?
**A.** 0.09691 ± 0.0069 W/m/K

**Q.** And the thermal conductivity (302.05 K, 25799 kPa, Liquid)?
**A.** 0.0933 ± 0.0075 W/m/K

**Q.** And the thermal conductivity (302.07 K, 11891 kPa, Liquid)?
**A.** 0.08755 ± 0.0049 W/m/K

**Q.** What about the thermal conductivity (302.07 K, 16014 kPa, Liquid) of the same molecule?
**A.** 0.08895 ± 0.0035 W/m/K

**Q.** And the thermal conductivity (302.08 K, 7823 kPa, Liquid)?
**A.** 0.08555 ± 0.0046 W/m/K

**Q.** And the thermal conductivity (302.09 K, 30563 kPa, Liquid)?
**A.** 0.0947 ± 0.0029 W/m/K

**Q.** What about the thermal conductivity (302.12 K, 7862 kPa, Liquid) of the same molecule?
**A.** 0.08568 ± 0.0045 W/m/K

**Q.** And the thermal conductivity (302.12 K, 16448 kPa, Liquid)?
**A.** 0.08904 ± 0.0095 W/m/K

**Q.** And the thermal conductivity (302.12 K, 20518 kPa, Liquid)?
**A.** 0.09092 ± 0.0028 W/m/K

**Q.** And the thermal conductivity (302.12 K, 25501 kPa, Liquid)?
**A.** 0.09247 ± 0.0055 W/m/K

**Q.** And the thermal conductivity (302.13 K, 365 kPa, Liquid)?
**A.** 0.08182 ± 0.0052 W/m/K

**Q.** What about the thermal conductivity (302.13 K, 8079 kPa, Liquid) of the same molecule?
**A.** 0.08538 ± 0.0035 W/m/K

**Q.** And the thermal conductivity (302.16 K, 4079 kPa, Liquid)?
**A.** 0.0839 ± 0.0045 W/m/K

**Q.** And the thermal conductivity (302.19 K, 312 kPa, Liquid)?
**A.** 0.08161 ± 0.0029 W/m/K

**Q.** And the thermal conductivity (302.19 K, 11879 kPa, Liquid)?
**A.** 0.08708 ± 0.0044 W/m/K

**Q.** What about the thermal conductivity (302.19 K, 16009 kPa, Liquid) of the same molecule?
**A.** 0.08853 ± 0.0034 W/m/K

**Q.** And the thermal conductivity (302.2 K, 7820 kPa, Liquid)?
**A.** 0.08528 ± 0.0028 W/m/K

**Q.** And the thermal conductivity (302.24 K, 7854 kPa, Liquid)?
**A.** 0.08541 ± 0.0049 W/m/K

**Q.** What about the thermal conductivity (302.25 K, 142 kPa, Gas) of the same molecule?
**A.** 0.01122 ± 0.0004 W/m/K

**Q.** What about the thermal conductivity (302.25 K, 62977 kPa, Liquid) of the same molecule?
**A.** 0.106 ± 0.0033 W/m/K

**Q.** What about the thermal conductivity (302.26 K, 139 kPa, Gas) of the same molecule?
**A.** 0.01122 ± 0.0004 W/m/K

**Q.** And the thermal conductivity (302.26 K, 383 kPa, Liquid)?
**A.** 0.08132 ± 0.0058 W/m/K

**Q.** And the thermal conductivity (302.27 K, 65494 kPa, Liquid)?
**A.** 0.1068 ± 0.0063 W/m/K

**Q.** What about the thermal conductivity (302.28 K, 122 kPa, Gas) of the same molecule?
**A.** 0.01119 ± 0.0004 W/m/K

**Q.** And the thermal conductivity (302.28 K, 130 kPa, Gas)?
**A.** 0.01138 ± 0.00041 W/m/K

**Q.** And the thermal conductivity (302.28 K, 56452 kPa, Liquid)?
**A.** 0.1046 ± 0.0032 W/m/K

**Q.** What about the thermal conductivity (302.29 K, 4074 kPa, Liquid) of the same molecule?
**A.** 0.08366 ± 0.0028 W/m/K

**Q.** And the thermal conductivity (302.3 K, 48061 kPa, Liquid)?
**A.** 0.1009 ± 0.0069 W/m/K

**Q.** What about the thermal conductivity (302.31 K, 299 kPa, Liquid) of the same molecule?
**A.** 0.08152 ± 0.0026 W/m/K

**Q.** What about the thermal conductivity (302.31 K, 48422 kPa, Liquid) of the same molecule?
**A.** 0.1015 ± 0.0031 W/m/K

**Q.** And the thermal conductivity (302.37 K, 62973 kPa, Liquid)?
**A.** 0.1058 ± 0.0033 W/m/K

**Q.** And the thermal conductivity (302.38 K, 36377 kPa, Liquid)?
**A.** 0.09716 ± 0.003 W/m/K

**Q.** And the thermal conductivity (302.39 K, 42000 kPa, Liquid)?
**A.** 0.09898 ± 0.003 W/m/K

**Q.** What about the thermal conductivity (302.39 K, 65480 kPa, Liquid) of the same molecule?
**A.** 0.1069 ± 0.0065 W/m/K

**Q.** What about the thermal conductivity (302.4 K, 56441 kPa, Liquid) of the same molecule?
**A.** 0.104 ± 0.0033 W/m/K

**Q.** What about the thermal conductivity (302.41 K, 36234 kPa, Liquid) of the same molecule?
**A.** 0.09718 ± 0.003 W/m/K

**Q.** And the thermal conductivity (302.41 K, 47190 kPa, Liquid)?
**A.** 0.1008 ± 0.0033 W/m/K

**Q.** And the thermal conductivity (302.42 K, 48052 kPa, Liquid)?
**A.** 0.1012 ± 0.0072 W/m/K

**Q.** And the thermal conductivity (302.44 K, 48420 kPa, Liquid)?
**A.** 0.1011 ± 0.0035 W/m/K

**Q.** What about the thermal conductivity (302.45 K, 25800 kPa, Liquid) of the same molecule?
**A.** 0.09349 ± 0.0032 W/m/K

**Q.** And the thermal conductivity (302.47 K, 30544 kPa, Liquid)?
**A.** 0.0948 ± 0.0036 W/m/K

**Q.** And the thermal conductivity (302.51 K, 20515 kPa, Liquid)?
**A.** 0.09108 ± 0.0034 W/m/K

**Q.** And the thermal conductivity (302.51 K, 25497 kPa, Liquid)?
**A.** 0.09286 ± 0.0029 W/m/K

**Q.** And the thermal conductivity (302.51 K, 36380 kPa, Liquid)?
**A.** 0.09677 ± 0.003 W/m/K

**Q.** And the thermal conductivity (302.52 K, 41997 kPa, Liquid)?
**A.** 0.0988 ± 0.0038 W/m/K

**Q.** What about the thermal conductivity (302.53 K, 132 kPa, Gas) of the same molecule?
**A.** 0.0109 ± 0.00039 W/m/K
